# According to patent publication US20220338463A1, “METHOD OF PRODUCING LYOPHILIZED CELLS” (LONZA LTD, priority 2019, published 2022):
# Legend:
# SK-N-AS cells [1] = assay: ALAMARBLUE assay of plated cells after freeze-thaw of suspended cells; assay type: cell-based, Human; settings: for cell viability after freeze-thawing on decreasing the concentration of PBS: hypotonic conditions, FIG. 11
# Experimental: The cells were plated on a 96-well plate in a density of 2.25×10^5 cells/cm^2 and diluted with medium to the final volume of 200 μL inside the well. The cells were then incubated overnight at 37° C. and 5% CO2 so they attached to the wells. Cells were stained with 10 μL ALAMARBLUE® reagent per 100 μL of medium in the well and incubated for 4 h. Same procedure was applied for a blank, where 200 μL of medium was pipetted into the well. After that, 100 μL of solution above the cells was pipetted into a black non-transparent 96-well plate and fluorescence was measured with SPECTRAMAX® plate reader (excitation λ=550 nm, emission λ=590 nm).
# (§1) Formulations were prepared in 50 mL Falcon tubes and subsequently sterile filtered under the bench with 0.22 μm syringe filter and a syringe. Sterile formulations were then stored at 2-8° C. until further use. 0.5 mL of cell suspension in either PBS or medium at a concentration of 20*10^6 cells/mL was mixed with 0.5 mL of pre-warmed sterile formulation. Vials were then stoppered and stored in a −80° C. freezer for minimum overnight.
# (§2) Subsequently, the vials were taken from the −80° C. freezer and rapidly thawed in the water bath at 37° C. Immediately after thawing, 0.1 mL of cell suspension was 2× diluted with medium and counted with NucleoCounter to obtain cell viability [%] and concentration inside the vial. Suspension was then plated on a 96-well plate so the cell density was 2.25×10^5 cells/cm^2 (growth area in one well is 0.32 cm^2). Calculation of the volume (V) of cell suspension is according to following equation: […]
# Calculated volume was diluted inside of the well with cell growth medium, so that the final volume was 0.2 mL. 96-well plate with samples was incubated overnight in the incubator and ALAMARBLUE® assay was performed the morning after (if not stated differently in the results section).
# ALAMARBLUE® on the other hand, contains a reagent called resazurin. This is a non-toxic, blue, weakly fluorescent dye, which can permeate cell membranes. Resazurin undergoes a metabolic reduction inside of the cell to a form called resorufin, which is pink and highly fluorescent. The intensity of fluorescence is proportional to the amount of cells that are able to metabolize resazurin and are thus considered viable.
# SK-N-AS cells [2] = assay: DAPI/acridine orange viability (NUCLEOCOUNTER) directly after freeze-thaw; assay type: cell-based, Human; settings: directly after thawing, FIG. 6
# Experimental: 200 μL of cell suspension was pipetted into 1.5 mL Eppendorf tube and diluted with medium. Diluted suspension was then pipetted with VIAL-[…]™ and inserted into the NUCLEOCOUNTER® for measurement.
# as §1, §2
# Next, we compared two methods for determining viability and noticed a large discrepancy in obtained results (FIG. 5 and FIG. 6). The reason for this is the difference in underlying principles of viability assessment of both methods. As previously, DAPI/acridine orange staining is performed using NUCLEOCOUNTER®, which is an integrated fluorescence microscope with dual fluorescence channels. One is for staining with acridine orange and the other with DAPI dye. They both bind to DNA and label cellular nuclei with high specificity. Acridine orange can permeate the cell membrane and is used for cell detection, while DAPI cannot permeate the membrane and binds only to nuclei of dead cells with disrupted membrane. Thus, the cell viability according to the DAPI/acridine orange method, is mostly based on the integrity of cell membranes. Dyes are fluorescent and therefore visible when using fluorescence filters in microscope, while cell debris and other particles without DNA are not visible. The software then identifies and analyses the individual cells (even within smaller aggregates) and calculates the viability, by comparing the ratio of signal with Acridine Orange and DAPI staining (according to equation below).
# [3] = Freeze drying, visual inspection of lyophilization cake; assay type: physicochemical; settings: 1M propylene glycol and 0.1M trehalose formulation; FIG. 21B
# Experimental: Freeze drying was performed with the SP Scientific's LyoStar 3 pilot scale freeze dryer with 0.4 m^2 of shelf surface area. Vials were filled and loaded on a tray under the biosafety bench and then loaded in the freeze dryer. Vials were left on the tray inside the lyophilizer, to avoid any spillage of biomaterial inside the chamber in case of a vial breakage.
# Employed conservative lyophilization programs (Table 3 and Table 4) included freezing and primary drying steps. Since it is known from literature, that complete elimination of water and higher temperatures employed during secondary drying negatively impact the cell survival during process, the step was omitted. The product temperature was monitored by including a thermocouple inside the vial, so that its tip touched the bottom of the vial. After unloading of the vials from the lyophilizer, they were visually inspected.
smiles,measurement,setting,value
"C[S+](C)[O-] [DMSO, Dimethyl Sulfoxide, reference compound]",cell viability compared to the untreated control,"SK-N-AS cells [1]; 5% DMSO, internal data",over 80%
"OCCO [ethylene glycol, Ethylene glycol]","densities of plated cells after thawing, 1M ethylene glycol vs 1M propylene glycol","SK-N-AS cells [1]; 1M, FIG. 8B",not significantly different
same,"cell density after thawing vs propylene glycol, ANOVA and t-test","SK-N-AS cells [1]; formulation in medium, P<0.05",significantly worse than propylene glycol
same,cell viability after freeze-thawing on decreasing the concentration of PBS,SK-N-AS cells [1],decrease in cell viability
"OCC(O)CO [glycerol, Glycerol]",cell density after freeze-thaw compared with 5% DMSO formulation in medium,"SK-N-AS cells [1]; glycerol formulation in medium, FIG. 8A",not significantly worse than 5% DMSO formulation
"CC(O)CO (centres unmarked) [propylene glycol, Propylene glycol]",viability after FT of cells (DAPI/acridine testing),SK-N-AS cells [2]; 0.1M propylene glycol,around 50%
same,viability after FT of cells (DAPI/acridine testing),SK-N-AS cells [2]; 0.2M propylene glycol,around 50%
same,viability after FT of cells (DAPI/acridine testing),SK-N-AS cells [2]; 1M propylene glycol,~100%
same,viability after FT of cells (DAPI/acridine testing),SK-N-AS cells [2]; 2M propylene glycol,~100%
same,"optimisation of propylene glycol concentration, viability by ALAMARBLUE","SK-N-AS cells [1]; 1M concentration, FIG. 7B",most favourable
same,relative viability to control (untreated cells) after freeze thawing,"SK-N-AS cells [1]; 5% (v/v) in cell medium, FIG. 7A",efficient in protecting the cells compared to other tested excipients
same,cell viability of treated cells relative to untreated cells (metabolic assay),"SK-N-AS cells [1]; after FT, compared with DAPI/acridine results, FIG. 5",much lower cell viability
same,cell viability after freeze-thawing on decreasing the concentration of PBS,SK-N-AS cells [1],decrease in cell viability
same,appearance of lyophilizate,[3],remained in liquid form
